Measured values reported in US9226912B2, “Acetyltanshinone IIA (ATA) as anticancer agent” (Nanyang Technological University, priority 2011, dated 2016).

Experiments:
[1] = tested on: GREB1 mRNA in MCF-7 cells; test: Real-time PCR of GREB1 mRNA level; conditions: for GREB1 mRNA level, fold of the control: 100 pM estrogen plus 6 μM ATA, charcoal-stripped medium
Procedure: In order to do so, the mRNA level of a non-ER regulated gene GAPDH was measured and used as a reference. MCF-7 cells cultured in the charcoal-stripped medium were used as a control.

HeLa = test: IC50 and LC50 of ATA at 48 h; format: cell-based; conditions: Homo sapiens, HeLa cervical cancer
[2] = IC50 and LC50 of ATA at 48 h; format: cell-based; conditions: human, MCF-10A cells (non-cancer breast cell line), MCF-10A non-cancer breast cell line
MCF-10A = test: IC50 and LC50 of ATA at 48 h; format: cell-based; conditions: Homo sapiens, MCF-10A non-cancer breast cell line
ERα in MCF-7 cells = target: T1, ERα in MCF-7 cells (Homo sapiens, UniProt P03372); test: ERα protein level by immunostaining and Western blot; format: cell-based
T1 construct: endogenous in cells; host or cells: MCF-7 human breast cancer cells
T1 sequence (P03372 1-595): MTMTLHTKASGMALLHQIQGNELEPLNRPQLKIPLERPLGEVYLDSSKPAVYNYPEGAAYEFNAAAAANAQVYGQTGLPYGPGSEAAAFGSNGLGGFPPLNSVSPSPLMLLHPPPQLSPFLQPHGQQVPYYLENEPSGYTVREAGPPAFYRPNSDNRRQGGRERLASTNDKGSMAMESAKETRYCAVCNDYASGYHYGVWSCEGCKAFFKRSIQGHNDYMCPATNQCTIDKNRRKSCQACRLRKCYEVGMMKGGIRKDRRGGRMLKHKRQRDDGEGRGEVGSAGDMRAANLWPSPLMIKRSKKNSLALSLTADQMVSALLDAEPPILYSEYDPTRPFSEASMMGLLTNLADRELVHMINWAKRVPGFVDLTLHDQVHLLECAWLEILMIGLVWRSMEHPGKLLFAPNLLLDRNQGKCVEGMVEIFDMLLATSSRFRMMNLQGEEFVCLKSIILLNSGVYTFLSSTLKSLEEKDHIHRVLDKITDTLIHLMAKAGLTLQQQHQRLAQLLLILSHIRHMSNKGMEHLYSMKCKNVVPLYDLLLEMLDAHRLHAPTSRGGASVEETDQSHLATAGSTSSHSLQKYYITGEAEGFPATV
Procedure: (B) Western blot analysis of ERα levels in normal medium-cultured MCF-7 cells at different times with 6 μM ATA treatment.
Thus, immunostaining was used to exam the protein level of ERα in MCF-7 cells after ATA treatment. It was observed that ERα was mainly localized in the nucleus (FIG. 6A) in the control cells, which had been cultured in the charcoal-stripped medium for 4 days.
Subsequently, Western blot analysis was used to confirm this prediction. […] To ensure that ATA produced a similar effect in the MCF-7 cells under a physiological condition, Western blotting was used to determine the protein level of ERα in normal medium-cultured MCF-7 cells with or without ATA treatment.

MDA-MB-435 = test: IC50 and LC50 of ATA at 48 h; format: cell-based; conditions: Homo sapiens, MDA-MB-435 melanoma
MCF-7 = test: Growth inhibition at 72 h by MTT assay
MCF-7/HER2 cells = test: Growth inhibition of HER2 over-expressing cells at 72 h; format: cell-based
Text: The efficacy of ATA on MCF-7 cells with over-expressed HER2 protein was investigated.

ROS in MDA-MB-435 cells = test: ROS generation and its prevention by PG; format: cell-based, human; conditions: MDA-MB-435 cells
Procedure: (A) PG prevented ATA-induced cell death. Three concentrations of PG were tested for their protective effects on ATA-induced cell death. The cell viability was measured by SRB assay. (* p<0.01). (B) PG protected ROS generation caused by ATA treatment. […] All the experiments were performed at least three times. The results presented in this figure are the average of three experiments. Error bar represents standard deviation. Scale bar=20 μm.
It was further tested, whether PG could prevent ROS generation after ATA treatment.

ERα in BT474 cells = target: T2, ERα in BT474 cells (Homo sapiens, UniProt P03372); test: ERα protein level by Western blotting; format: cell-based; conditions: 6 μM ATA or 1 μM fulvestrant
T2 construct: endogenous in cells; host or cells: BT474 human breast cancer cells
Procedure: Cells were treated with 6 μM ATA or 1 μM fulvestrant for indicated times and analyzed by Western blotting.

MDA-MB-435 cells = test: cells; format: cell-based; conditions: Homo sapiens, MDA-MB-435, 24 h, read-out: cell viability
Procedure: (A) ROS generation in various cancer cell lines was detected using H2DCFDA after 10 μM ATA treatment for 2 h. The number indicates the fold of increase in ROS level compared to control. (B) Antioxidant prevented ATA-induced MDA-MB-435 cell death. Various antioxidants at the indicated concentration were tested for their protective effects against ATA-induced MDA-MB-435 cell death. Cells were first pre-treated with each antioxidant for 1 h and then ATA was added into the culture medium in the presence of antioxidants. The cell viability was measured by sulforhodamine B (SRB) colorimetric assay for cytotoxicity determination (* p<0.01).
(A) PG prevented ATA-induced cell death. Three concentrations of PG were tested for their protective effects on ATA-induced cell death. The cell viability was measured by SRB assay. (* p<0.01). (B) PG protected ROS generation caused by ATA treatment. […] All the experiments were performed at least three times. The results presented in this figure are the average of three experiments. […]
Since the generation of ROS was detected in all six examined cell lines and it occurred only 2 h after ATA addition, which was at least 4-6 h ahead of Bax translocation, it was speculated that ATA-mediated ROS generation might be the cause for cell death. […] The percentage of cell death after 24 h of ATA treatment was measured using SRB cytotoxicity assay.

[3] = 6 μM ATA, 3 h, charcoal-stripped medium, immunostaining

With `CC(=O)Oc1c(OC(C)=O)c2c(C)coc2c2ccc3c(c12)CCCC3(C)C` [ATA, 1,6,6-trimethyl-8,9-dihydro-10,11-diacetoxyl-7H-naphtho[1,2-g][1]benzofuran] the “GREB1 mRNA level, fold of the control” value ([1]; 4 h) was 6.4 fold, the “GREB1 mRNA level, fold of the control” value ([1]; 12 h) was 7.9 fold and the “GREB1 level of the control” value ([1]; 100 pM estrogen plus 6 μM compound, 24 h, normal medium) was “about 50%”. For the same molecule, the CC50 (HeLa) was 10900 ± 1450 nM, the IC50 (HeLa) was 1390 ± 130 nM and the CC50 at 48 h [2] was 16300 ± 4460 nM. The IC50 (MCF-10A) was 6640 nM, the ERα protein level (ERα in MCF-7 cells; 6 μM ATA, 24 and 48 h, normal medium, Western blot) was “significantly decreased” and the “ERα fluorescence intensity in the cytosol” value (ERα in MCF-7 cells; [3]) was “remained unchanged”. The “level of ERα in the nucleus” value (ERα in MCF-7 cells; [3]) was “greatly reduced”, the “total protein level of ERα” value (ERα in MCF-7 cells; 4 h, charcoal-stripped medium, Western blot) was “slightly reduced” and the “total protein level of ERα” value (ERα in MCF-7 cells; after 8 h, charcoal-stripped medium, Western blot) was “significantly reduced”. The CC50 (MDA-MB-435) was 2740 ± 510 nM, the IC50 (MDA-MB-435) was 550 ± 150 nM and the IC50 (MCF-7; Homo sapiens, MCF7, 72 h) was 1480 ± 240 nM. For the same molecule, the inhibition at 3.13 µM (MCF-7; Homo sapiens, MCF7, 72 h, read-out: growth inhibition rate) was 94.7%, the “IC50 ratio of tamoxifen/ATA” value (MCF-7; MCF-7 (ER+), 72 h) was 6.8 and the “higher growth inhibition rate than tamoxifen” value (MCF-7; MCF-7, three tested drug concentrations, 72 h, MTT) was 57-74%. For the same molecule, the “less ATA needed than tamoxifen to inhibit 50% of ER-positive cell growth” value (MCF-7; two ER-positive breast cancer cell lines, 72 h) was 6.7 fold, the IC50 (MCF-7/HER2 cells; Homo sapiens, MCF7, MCF-7/HER2 cells, 72 h) was 1000 ± 230 nM and the “sensitivity of MCF-7/HER2 cells compared with MCF-7 cells” value (MCF-7/HER2 cells; paclitaxel 1×10^−3 μM to 10 μM, ATA 0.78 μM to 6.25 μM) was “higher sensitivity to ATA”. For the same molecule, the “time of maximum ROS level after ATA addition” value (ROS in MDA-MB-435 cells) was 2 h, the “level of ERα” value (ERα in BT474 cells) was “reduced the level of ERα and HER2” and the viability at 5 µM (MDA-MB-435 cells) was 35%.
